Results on 3 molecules are retold here after patent US20030073097A1, “TRAF6-regulated IKK activators (TRIKA1 and TRIKA2) and their use as anti-inflammatory targets” (priority 2001, published 2003).

Peptide text beside a SMILES is read from it. * marks the point of attachment. Cbz = O=C(OCc1ccccc1)*

The target in one experiment is T1, IKK (Homo sapiens, UniProt O14920+O15111).
T1 construct: IKK complex was purified form HeLa cells or from calf thymus using ATP-Sepharose; endogenous in cells
Put plainly: In vitro assay for IKK activation by TRAF6 (IκBα phosphorylation). The class given is biochemical. As to conditions: inhibitor at 20 μM added to the assay. The procedure:
In vitro Assay for IKK Activation. To detect endogenous IKK activation, cell extracts (5 mg/ml) were incubated with TRAF6 (or, T6RZC, 0.1 μM) together with an ATP regenerating buffer (Chen et al., 1995). After incubation at 30° C. for 1 hour, the reaction was analyzed by immunoblotting with a phospho-IκBα specific antibody. To identify intermediary factors involved in TRAF6-mediated IKK activation, the inventors used a reconstitution assay by adding ^35S-IκBα (0.5 μl) and purified IKK complex (5 nM) to a 5 μl reaction mixture that also contains ATP (2 mM), TRAF6 (0.1 μM), and column fractions (0.5-1 μl). In most IKK activation assays, E1 (0.1 μM) and Ub (0.1 mM) were also added to enhance the reaction, although they can be supplied from the wheat germ extracts used for in vitro translation of IκBα. As an assay for purification of TRIKA1, reaction mixtures also contain 0.5 μg TRIKA2/FrIIa, a fraction eluted from Q-Sepharose with 0.2M NaCl. The reaction was carried out at 30° C. for 1 hour, and then analyzed using a PhosphorImager (Molecular Dynamics) following SDS-PAGE.

For a further experiment, the system named is proteasome. As to conditions: 20 μM; Chen et al., 1995; cited from earlier work.
For a further experiment, the system named is T6RZC stable 293 cells. Put plainly: Coumermycin A-induced TRAF6-gyrase B (T6RZC) dimerization in stable 293 cells, IκBα degradation. As to conditions: 293 cells stably expressing T6RZC; coumermycin A 1 μM. The class given is cell-based, human. On the procedure: Generation of TRAF6-gyraseB stable cell lines. The TRAF6-gyrase B fusion was constructed by replacing the C-terminal TRAF domain of TRAF6 (residues 1-358) with the N-terminal fragment of bacterial gyrase B (T6RZC). Another chimeric construct contained residues 1-291 of TRAF6 (T6RZ). These chimeras were cloned into the mammalian expression vector pEF-IRES-P (Deng et al., 2000). Following transfection of DNA into 293 cells, stable clones were selected in puromycin (1 μg/ml). To induce the dimerization of TRAF6 and subsequent activation of the JNK and IKK pathways, cells were treated with coumermycin A (1 μM) for different lengths of time, and then cell extracts prepared for further analysis.

T1 sequence (O14920 whole entry): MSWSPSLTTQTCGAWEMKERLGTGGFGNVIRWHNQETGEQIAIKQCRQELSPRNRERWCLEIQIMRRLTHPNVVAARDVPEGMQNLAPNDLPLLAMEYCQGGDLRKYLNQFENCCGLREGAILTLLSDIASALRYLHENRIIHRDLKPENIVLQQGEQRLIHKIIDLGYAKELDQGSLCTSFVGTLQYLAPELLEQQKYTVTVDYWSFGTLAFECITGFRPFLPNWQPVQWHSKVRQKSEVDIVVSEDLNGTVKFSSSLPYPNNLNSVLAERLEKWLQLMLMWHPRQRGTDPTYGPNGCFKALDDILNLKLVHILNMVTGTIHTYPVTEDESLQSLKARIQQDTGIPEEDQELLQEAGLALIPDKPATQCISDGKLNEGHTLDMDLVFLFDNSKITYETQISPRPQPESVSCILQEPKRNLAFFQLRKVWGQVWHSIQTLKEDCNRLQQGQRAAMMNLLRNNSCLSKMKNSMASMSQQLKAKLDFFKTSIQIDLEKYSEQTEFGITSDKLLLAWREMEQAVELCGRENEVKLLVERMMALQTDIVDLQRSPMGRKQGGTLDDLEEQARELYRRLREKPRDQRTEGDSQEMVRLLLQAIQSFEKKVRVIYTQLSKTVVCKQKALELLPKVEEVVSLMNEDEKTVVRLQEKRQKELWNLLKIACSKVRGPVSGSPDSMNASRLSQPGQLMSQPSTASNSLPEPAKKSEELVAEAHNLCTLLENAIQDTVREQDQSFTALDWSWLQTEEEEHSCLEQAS
T1 sequence (O15111 whole entry): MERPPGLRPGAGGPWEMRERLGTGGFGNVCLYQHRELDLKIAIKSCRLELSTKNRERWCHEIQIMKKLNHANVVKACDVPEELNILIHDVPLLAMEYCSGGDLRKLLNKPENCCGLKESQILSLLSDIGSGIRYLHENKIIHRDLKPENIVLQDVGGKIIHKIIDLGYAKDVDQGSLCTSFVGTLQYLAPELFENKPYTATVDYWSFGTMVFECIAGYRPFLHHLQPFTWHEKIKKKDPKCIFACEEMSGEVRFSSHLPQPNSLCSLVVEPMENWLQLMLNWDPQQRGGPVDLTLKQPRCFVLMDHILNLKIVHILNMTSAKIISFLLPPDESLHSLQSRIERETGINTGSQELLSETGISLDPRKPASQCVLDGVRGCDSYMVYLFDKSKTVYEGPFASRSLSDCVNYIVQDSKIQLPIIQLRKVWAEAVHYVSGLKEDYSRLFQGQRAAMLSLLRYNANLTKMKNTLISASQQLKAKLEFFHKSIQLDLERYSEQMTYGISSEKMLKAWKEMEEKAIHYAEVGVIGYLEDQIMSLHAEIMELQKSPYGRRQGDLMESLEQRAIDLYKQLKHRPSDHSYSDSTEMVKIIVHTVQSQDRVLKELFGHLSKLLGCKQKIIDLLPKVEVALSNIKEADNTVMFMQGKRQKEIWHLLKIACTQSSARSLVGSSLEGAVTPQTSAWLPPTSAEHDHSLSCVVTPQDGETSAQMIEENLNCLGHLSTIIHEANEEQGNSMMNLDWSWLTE
T1 sequence (Q9Y6K9 whole entry partner): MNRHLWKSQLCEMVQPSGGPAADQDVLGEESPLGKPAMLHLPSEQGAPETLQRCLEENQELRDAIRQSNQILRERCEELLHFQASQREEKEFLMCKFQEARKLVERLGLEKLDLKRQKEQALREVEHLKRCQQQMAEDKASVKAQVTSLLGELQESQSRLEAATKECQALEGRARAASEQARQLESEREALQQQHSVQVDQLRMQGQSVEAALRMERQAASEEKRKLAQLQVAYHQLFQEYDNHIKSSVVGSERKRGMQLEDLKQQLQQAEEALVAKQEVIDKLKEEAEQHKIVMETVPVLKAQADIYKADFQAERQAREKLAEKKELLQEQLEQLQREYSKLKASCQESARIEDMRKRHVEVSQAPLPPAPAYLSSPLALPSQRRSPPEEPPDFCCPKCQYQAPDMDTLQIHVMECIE

Turning to `CC(C)C[C@@H](C=O)NC(=O)[C@H](CC(C)C)NC(=O)[C@H](CC(C)C)NC(=O)OCc1ccccc1` [MG132] (Cbz-Leu-Leu-Leu-aldehyde), the “Inhibition of IKK activation by TRAF6” value on IKK was “No inhibition”. Further, in the experiment on proteasome, the “Block of proteasomal activity” value is on record as “completely block”.
For `CO[C@H]1[C@H](OC(=O)c2ccc(C)[nH]2)[C@H](O)[C@@H](Oc2ccc3c(O)c(NC(=O)c4c[nH]c(C(=O)Nc5c(O)c6ccc(O[C@H]7OC(C)(C)[C@@H](OC)[C@H](OC(=O)c8ccc(C)[nH]8)[C@@H]7O)c(C)c6oc5=O)c4C)c(=O)oc3c2C)OC1(C)C` [coumermycin A], the “Degradation of IκBα upon addition of the dimerizer” value in the experiment with T6RZC stable 293 cells was “rapidly degraded”.
Take `CC(=O)N[C@@H](CSC(=O)[C@]1([C@@H](O)C(C)C)NC(=O)[C@H](C)[C@@H]1O)C(=O)O` [lactacystin]: the “Inhibition of IKK activation by TRAF6” value at IKK is given as “No inhibition”. Besides, the “Block of proteasomal activity” value with proteasome is “completely block”.
